Experimental data taken from patent publication US20120283228A1, “2alpha-Methyl and 2beta-Methyl Analogs of 19,26-Dinor-1alpha,25-Dihydroxyvitamin D3 and Their Uses” (WISCONSIN ALUMNI RESEARCH FOUNDATION, priority 2011, published 2012).
Entries after “also recorded” stand apart in the source; their conditions may differ.

Legend:
[1] = molecular target: T1, full-length recombinant rat vitamin D receptor (Rattus norvegicus, UniProt P13053)
T1 sequence (P13053 1-423): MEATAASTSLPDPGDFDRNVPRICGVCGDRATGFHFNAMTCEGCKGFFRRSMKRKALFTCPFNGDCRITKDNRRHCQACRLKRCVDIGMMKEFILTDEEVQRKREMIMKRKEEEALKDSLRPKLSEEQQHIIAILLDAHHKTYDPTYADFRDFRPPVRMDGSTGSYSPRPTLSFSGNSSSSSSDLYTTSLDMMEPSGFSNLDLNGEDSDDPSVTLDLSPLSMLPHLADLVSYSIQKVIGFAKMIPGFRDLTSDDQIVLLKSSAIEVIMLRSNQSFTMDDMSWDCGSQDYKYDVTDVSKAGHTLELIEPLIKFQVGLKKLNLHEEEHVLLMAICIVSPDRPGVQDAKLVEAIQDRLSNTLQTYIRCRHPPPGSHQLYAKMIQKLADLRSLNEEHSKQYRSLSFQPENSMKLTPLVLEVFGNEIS
Protocol: (§2) Full-length recombinant rat receptor was expressed in E. coli BL21 (DE3) Codon Plus RIL cells and purified to homogeneity using two different column chromatography systems. The first system was a nickel affinity resin that utilizes the C-terminal histidine tag on this protein. The protein that was eluted from this resin was further purified using ion exchange chromatography (S-Sepharose Fast Flow). Aliquots of the purified protein were quick frozen in liquid nitrogen and stored at −80° C. until use. For use in binding assays, the protein was diluted in TEDK50 (50 mM Tris, 1.5 mM EDTA, pH 7.4, 5 mM DTT, 150 mM KCl) with 0.1% Chaps detergent. The receptor protein and ligand concentration was optimized such that no more than 20% of the added radiolabeled ligand as bound to the receptor.
(§3) Radiolabeled and unlabeled ligands were added to 100 mcl of the diluted protein at a final ethanol concentration of ≦10%; mixed and incubated overnight on ice to reach binding equilibrium. The following day, 100 mcl of hydroxylapaptite slurry (50%) was added to each tube and mixed at 10-minute intervals for 30 minutes. The hydroxylapaptite was collected by centrifugation and then washed three times with Tris-EDTA buffer (50 mM Tris, 1.5 mM EDTA, pH 7.4) containing 0.5% Titron X-100. After the final wash, the pellets were transferred to scintillation vials containing 4 ml of Biosafe II scintillation cocktail, mixed and placed in a scintillation counter. Total binding was determined from the tubes containing only radiolabeled ligand.

vitamin D-deficient rats [2] = experiment: Intestinal calcium transport (everted gut sac method); type: in vivo, Sprague-Dawley rats
Protocol: (§1) Male, weanling Sprague-Dawley rats were placed on Diet 11 (0.47% Ca) diet +AEK for one week followed by Diet 11 (0.02% Ca) +AEK for 3 weeks. The rats were then switched to a diet containing 0.47% Ca for one week followed by two, weeks on a diet containing 0.02% Ca. Dose administration began during the last week on 0.02% calcium diet. Four consecutive ip doses were given approximately 24 hours apart. Twenty-four hours after the last dose, blood was collected from the severed neck and the concentration of serum calcium determined as a measure of bone calcium mobilization. The first 10 cm of the intestine was also collected for intestinal calcium transport analysis using the everted gut sac method.

[3] = system: Human promyelocytic leukemia (HL60) cells; experiment: HL-60 differentiation (nitro blue tetrazolium reduction); type: cell-based
Protocol: Serial dilutions were prepared so that a range of drug concentrations could be tested without changing the final concentration of ethanol (≦0.2%) present in the cell cultures.
Human promyelocytic leukemia (HL60) cells were grown in RPMI-1640 medium containing 10% fetal bovine serus. The cells were incubated at 37° C. in the presence of 5% CO2.
HL60 cells were plated at 1.2×10^5 cells/ml. Eighteen hours after plating, cells in duplicate were treated with drug. Four days later, the cells were harvested and a nitro blue tetrazolium reduction assay was performed (Collins et al., 1979; J. Ex. Med. 149:969-974). The percentage of differentiated cells was determined by counting a total of 200 cells and recording the number that contained intracellular black-blue formazan deposits Verification of differentiation to monocytic cells was determined by measuring phagocytic activity (data not shown).

[4] = molecular target: T1, full-length recombinant rat vitamin D receptor; experiment: biochemical; settings: ability to compete with [3H]-1,25(OH)2D3 for binding to the vitamin D receptor, full-length recombinant rat VDR
Protocol: as §2, §3

[5] = system: 24-hydroxylase (24Ohase) gene promoter; experiment: In vitro transcription assay in ROS 17/2.8 (bone) cells, luciferase reporter; type: cell-based; settings: more than 1,25(OH)2D3
Protocol: Transcription activity was measured in ROS 17/2.8 (bone) cells that were stably transfected with a 24-hydroxylase (24Ohase) gene promoter upstream of a luciferase reporter gene (Arbour et al., 1998). Cells were given a range of doses. Sixteen hours after dosing the cells were harvested and luciferase activities were measured using a luminometer.
RLU=relative luciferase units.

vitamin D-deficient rats [6] = experiment: Bone calcium mobilization (serum calcium); type: in vivo, Sprague-Dawley rats; settings: rats on low calcium diet (0.02%)
Protocol: as §1

[7] = rats on low calcium diet (0.02%), 4 ip doses

CC(O)CCCC(C)C1CCC2C(=CC=C3CC(O)C(C)C(O)C3)CCCC21C (single isomer, unassigned) [LR-2]
binding to the receptor as compared to 1,25(OH)2D3 [1]: bound equally well; also recorded: equivalent | intestinal calcium transport at 7,020 pmol/day (vitamin D-deficient rats [2]; 7,020 pmol/day, compared with 1,25(OH)2D3 at 780 pmol/day): some intestinal calcium transport activity, but still not to the same extent as 1,25(OH)2D3 | logs less potent than 1,25(OH)2D3 in the intestine (vitamin D-deficient rats [2]; [7]): approximately one and one | times less potent than 1,25(OH)2D3 in stimulating calcium transport in the gut (vitamin D-deficient rats [2]; [7]): about 10 times | EC50 ([3]; HL-60 cells, read-out: EC50, ability to promote HL-60 cell differentiation): 0.1 nM | times more potent than 1,25(OH)2D3 on HL-60 differentiation ([3]; more potent than 1,25(OH)2D3): 10 times | Ki [4]: 0.08 nM | times more transcriptional activity than 1α,25-dihydroxyvitamin D3 in bone cells [5]: 10 times | mobilization of bone calcium at 7,020 pmol/day (vitamin D-deficient rats [6]; 7,020 pmol/day for 4 consecutive days): did not result in mobilization of bone calcium | mobilization of bone calcium at 21,060 pmol/day (vitamin D-deficient rats [6]; 21,060 pmol/day for 4 consecutive days): without any substantial effect | activity in mobilizing calcium from bone / serum calcium levels (vitamin D-deficient rats [6]; all dosages tested): little, if any, activity | times less potent than 1,25(OH)2D3 in bone (bone calcium mobilization) (vitamin D-deficient rats [6]; 4 ip doses): more than 30 times
